pIC50: −log10 of the molar value. “And” between values parts separate entries of the source, which are not always exact repeats. Equal entries are not always repeated. Where two headings read alike, the source gives them in different places.
How the values were obtained:
[1] = target: Na+ channel currents in LQT3 patient-derived cardiomyocytes (Homo sapiens, UniProt Q14524); test: Whole cell patch clamp of Na+ currents (INaP, INaL) in hIPSC LQT3 patient-derived cardiomyocytes; assay type: cell-based
Description: Patch clamp recordings from hIPSC LQT3 patient-derived cardiomyocytes for Na+ channel currents were recorded in response to computed voltage waveforms that simulated adult ventricular action potentials.
The basis for LQT3 is a mutation in SCN5a that encodes the voltage-gated Na channel responsible for cardiac action potential. The Na current (INa) has peak and late components: the peak component initiates the action potential but as voltage rises, the channel normally inactivates. […] The LQT3 mutation impairs inactivation. The late component is then enlarged, resulting in action potential prolongation. […] Whole cell patch clamp electrophysiology experiments in LQTS3 cardiomyocytes helped determine the functional activity of drug candidates for inhibition of the late sodium current in the cells. Thus, we tested compounds for Peak (INaP) and Late (INaL) components. They were recorded in a “whole-cell” voltage-clamp mode configuration in response to voltage stimulation steps from −80 mV to +40 mV and their IC50 values determined (Table 1).

[2] = Metabolic stability in human liver microsomes; assay type: in vitro ADME; conditions: for half-life at 50 μM: human, liver microsomes, pH 7.4, liver microsomes + NADPH, species (human), read-out: metabolic stability in liver microsomes T1/2
Description: (§1) A typical incubation contained rat, mouse, dog or human liver microsomes (0.4-0.5 mg of protein), 100 mM potassium phosphate buffer (pH7.4), 50 μM test compound, an NADPH-generating system consisting of 0.5 mM NADP^+, 0.5 mM glucose-6-phosphate, 1 IU/mL glucose-6-phosphate dehydrogenase, 1 mg/mL diethylenetriaminepentaaceticacid (DETAPAC), and 3 mM MgCl2 in a final incubation volume of 0.25 mL. […] After centrifugation at 3000 rpm for 5 min, the organic fraction was collected, the solvent was removed with a stream of argon and the residue was reconstituted in 125 μL of MeOH and 125 μL H2O, mixed thoroughly, centrifuged at 13,000 rpm for 5 min and analyzed by high performance liquid chromatography. Samples were run on a Hitachi D-7000 HPLC system using a L-7100 analytical pump, L-7400 UV-Visible variable wavelength detector, and L-7600 automatic sample injector. […] Disappearance of the analyte was monitored over time. A plot of the area under the curve for the normalized analyte versus time afforded the half-life values and kapp.

[3] = Metabolism in human hepatic S9
Description: as §1
Microsomes contain CYPs and FMO metabolic enzymes. S9 contains soluble enzymes (i.e., aldehyde oxidase, MAO, etc.).

[4] = Chemical stability in PBS buffer at pH 7.4 or 3.0, 37° C.; assay type: physicochemical; conditions: pH 7.4, 100 μM in PBS, 1% Ethanol, read-out: Half-Life @ pH 7.4 and 37° C.
Description: A typical incubation contained 100 μM of the test compound prepared in PBS buffer (pH 7.4 or 3.0, 50 mM) with 1% Ethanol. The test compounds were incubated at 37° C. An aliquot from incubations was taken at various times and injected onto an RP-HPLC system as described above. Disappearance of the analyte was monitored over time.

[5] = Solubility (water; 10:30:60% DMSO:PEG400:water vehicle); assay type: physicochemical
[6] = target: Nav1.5 sodium channel transfected into HEK293 cells (Homo sapiens, UniProt Q14524); test: Patch clamp electrophysiology, peak (INaP) and late (INaL) sodium current in transfected cells
Description: (§2) This provided data to investigate the physiology and action of target compounds on individual ion channels. The assay used standardized protocols for culturing and conducting conventional whole cell recording that have been previously developed for both current and voltage-clamp to characterize action potentials using transfected cells. Briefly, the Nav1.5 sodium channel was transfected into HEK293 cells. […] Briefly, cells were plated on 0.1% gelatin-coated 35-mm plastic Petri dishes. […] Data was reported as IC50 values±STD (Table 1).

[7] = target: Nav1.5 sodium channel, peak current (INaP) (Homo sapiens, UniProt Q14524, form not given); test: in vitro
Description: as §2

[8] = system: normal human induced pluripotent stem cell (hiPSC) cardiomyocyte; conditions: for WT-Prolong. Dose: 'No AP' wraps to 'No AP Prolong.'; for WT-Fold Prolongation: APD; for WT-Fold Prolongation / Cessation of Beating / WT-Prolongation Dose: normal hiPSC cardiomyocytes; for WT-Cess. Dose / WT-EC50 (μM)-Prolong.: deuterated vs non-deuterated; for WT-EC50 (μM)-Prolong.: 'No AP' wraps to 'No AP prolongation'
[9] = system: cardiomyocytes derived from hiPSCs from a LQTS3 patient; conditions: for LQT-Cess. Dose: deuterated vs non-deuterated
[10] = system: cardiomyocytes derived from hiPSCs from a LQTS3 patient; test: cells; conditions: Homo sapiens, Cardiomyocyte; for IC50: read-out: LQT-IC50 (uM)-Shortening
[11] = target: hERG potassium channel (IKr) (Homo sapiens, UniProt Q12809); test: Automated patch clamp, hERG (IKr) expressed in CHO cells; conditions: for pIC50: hERG (IKr) IC50, CHO cells
hERG potassium channel (IKr), sequence (Q12809 whole entry): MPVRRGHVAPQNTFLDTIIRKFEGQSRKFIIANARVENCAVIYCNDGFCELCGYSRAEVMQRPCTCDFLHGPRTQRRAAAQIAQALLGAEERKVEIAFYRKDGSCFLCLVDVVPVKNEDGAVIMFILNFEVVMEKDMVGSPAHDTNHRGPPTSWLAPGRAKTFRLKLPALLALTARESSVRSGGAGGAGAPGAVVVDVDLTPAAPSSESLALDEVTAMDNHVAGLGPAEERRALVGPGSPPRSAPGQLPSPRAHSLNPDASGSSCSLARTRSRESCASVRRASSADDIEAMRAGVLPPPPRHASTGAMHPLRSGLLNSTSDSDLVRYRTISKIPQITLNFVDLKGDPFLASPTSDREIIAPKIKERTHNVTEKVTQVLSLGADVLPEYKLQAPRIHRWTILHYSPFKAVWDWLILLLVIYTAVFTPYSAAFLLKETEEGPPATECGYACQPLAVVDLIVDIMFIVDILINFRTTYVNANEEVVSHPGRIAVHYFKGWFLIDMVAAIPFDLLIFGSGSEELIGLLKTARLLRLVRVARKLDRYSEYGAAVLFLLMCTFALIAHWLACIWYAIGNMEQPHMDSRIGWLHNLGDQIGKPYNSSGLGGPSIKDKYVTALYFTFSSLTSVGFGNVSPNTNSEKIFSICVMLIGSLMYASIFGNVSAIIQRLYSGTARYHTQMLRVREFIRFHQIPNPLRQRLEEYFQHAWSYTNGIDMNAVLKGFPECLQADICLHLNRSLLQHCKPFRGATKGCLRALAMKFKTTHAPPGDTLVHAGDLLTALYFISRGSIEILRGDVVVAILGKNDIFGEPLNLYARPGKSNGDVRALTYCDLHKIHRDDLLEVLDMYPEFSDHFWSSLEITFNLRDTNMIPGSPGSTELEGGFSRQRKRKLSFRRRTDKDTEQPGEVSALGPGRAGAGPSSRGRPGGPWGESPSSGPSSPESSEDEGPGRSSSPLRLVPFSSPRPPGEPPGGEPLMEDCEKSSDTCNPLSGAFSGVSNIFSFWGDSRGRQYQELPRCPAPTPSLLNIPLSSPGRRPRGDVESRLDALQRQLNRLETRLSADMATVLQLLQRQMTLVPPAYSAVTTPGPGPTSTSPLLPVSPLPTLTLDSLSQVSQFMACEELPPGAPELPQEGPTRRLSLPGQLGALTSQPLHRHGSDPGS

[12] = system: normal human induced pluripotent stem cell (hiPSC) cardiomyocyte; test: cells; conditions: read-out: WT-EC50 (μM) Prolongation
Male BALBc mice = conditions: mouse, in vivo, ip, 200 mg/kg
Description: Male BALBc mice (20-22 g) were used throughout these studies. The animals were maintained in a temperature-controlled room with 12-hr periods of light and darkness and had continuous access to water and animal food. […] Groups contained 2-4 animals.

CYP2D6 = CYP2D6 (Homo sapiens, UniProt P10635); test: Metabolism with highly purified CYP2D6 (HPLC); conditions: 50 min incubation
CYP2D6, sequence (P10635 whole entry): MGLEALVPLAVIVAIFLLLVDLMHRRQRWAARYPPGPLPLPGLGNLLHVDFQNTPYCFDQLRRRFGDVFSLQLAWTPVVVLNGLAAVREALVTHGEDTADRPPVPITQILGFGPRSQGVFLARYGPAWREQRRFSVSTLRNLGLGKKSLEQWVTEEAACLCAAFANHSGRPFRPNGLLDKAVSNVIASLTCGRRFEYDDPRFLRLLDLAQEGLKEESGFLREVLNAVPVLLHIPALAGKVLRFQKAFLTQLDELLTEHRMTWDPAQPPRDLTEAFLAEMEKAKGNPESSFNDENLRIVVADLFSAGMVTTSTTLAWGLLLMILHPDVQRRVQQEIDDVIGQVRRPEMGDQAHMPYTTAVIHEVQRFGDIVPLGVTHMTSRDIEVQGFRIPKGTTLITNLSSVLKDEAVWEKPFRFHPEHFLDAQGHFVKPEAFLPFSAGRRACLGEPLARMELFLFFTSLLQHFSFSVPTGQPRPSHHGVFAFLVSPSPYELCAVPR
Description: as §1
Accordingly, we examined the metabolism of leads with highly purified CYPs with an HPLC method (Example 8).

[13] = whole-cell voltage clamp, steps -80 mV to +40 mV, table title says transfected CHO cells, read-out: IC50 for INaL
[14] = whole-cell voltage clamp, steps -80 mV to +40 mV, table title says transfected CHO cells, read-out: IC50 for INaP
[15] = 'No AP' wraps to 'No AP shortening'
[16] = read-out: LQT-EC50 (μM)-Shortening

SMILES | pIC50 [1, 13] | pIC50 [1, 14] | half-life at 50 μM [2] | metabolism in human liver S-9 judged by HPLC [3] | half-life at 100 μM [4] | solubility (in words) [5] | DNap/NaL ([6]; ratio peak IC50/late IC50) | pIC50 ([7]; Peak Na+ (INaP) IC50) | WT-Prolong. Dose [8] | WT-Fold Prolongation [8] | WT-Cess. Dose [8] | WT-EC50 (μM)-Prolong. [8] | Cessation of Beating [8] | WT-Prolongation Dose [8] | LQT-Cessation Dose ([9]; LQT3 cardiomyocytes) | LQT-Fold Shortening ([9]; LQT3 cardiomyocytes) | IC50 [10] | pIC50 ([11]; Example 2) | DKr/NaL ([11]; ratio, Example 2) | DNaP/Kr ([11]; ratio, Example 2) | also measured
Cc1ccccc1OCC(N)c1ccccc1 (centres unmarked) [Compound 25, 1-phenyl-2-(o-tolyloxy)ethanamine] | 5.77 | 3.99 | > 0.0417 days | detectably metabolized | > 30 days | good solubility |  |  |  |  |  |  |  |  |  |  |  |  |  |  | pIC50 ([1]; LQT3 patient-derived cardiomyocytes, read-out: NaI channel Late (INaL) IC50): 5.76
Cl.NC(COc1cc(C(F)(F)F)cc(C(F)(F)F)c1)c1ccccc1 (centres unmarked) [Compound 78, 2-(3,5-bis(trifluoromethyl)phenoxy)-1-phenylethan-1-amine] |  |  | > 0.0417 days |  | > 30 days | good solubility | 19.4 | 4.70 | No AP | None | 133 µM | No AP | 133 µM | None | 66 µM | 1.208 | 23.1 µM | 5.14 | 7.0 | 2.77 | DNap/NaL ([6]; ratio peak/late IC50, Example 2): 19.4; LQT-Fold Shortening [9, 15]: 1.208; LQT-Shortening Dose [9, 15]: 22 µM; LQT-Cess. Dose [9]: 66 µM; EC50 [10, 16]: 23.1 µM
NC(COc1ccccc1C(F)(F)F)c1ccc2ccccc2c1 (centres unmarked) [Compound 134] |  |  |  |  |  |  |  |  |  |  |  |  |  |  |  |  |  |  |  |  | prolongation effects in wild type cells ([8]; wild type cells): some prolongation effects; LQT-Fold Shortening ([9]; LQT-3 cardiomyocytes): 1.515; LQT-Cessation Dose (μM) ([9]; LQT-3 cardiomyocytes, cessation of beating): No cessation of beating; LQT-3 shortening (in words) ([9]; LQT-3 cells): highly potent; cessation of beating (in words) ([9]; at the concentrations examined, cells not specified): did not induce cessation of beating; EC50 [12]: 24.4 µM; EC50 ([10]; read-out: LQT-EC50 (μM) Shortening, LQT-3 cardiomyocytes, AP shortening): 1.79 µM
COCCNC(COc1cccc(C)c1C)c1ccccc1 (racemic) [Compound 36, 2-(2,3-dimethylphenoxy)-N-methoxy-ethyl-1-phenylethanamine] | 6.42 | 4.29 |  | detectably metabolized |  | good solubility |  | 4.59 |  |  |  |  | None |  | 200 µM | 1.508 | 5.73 µM | 4.56 | 36.9 | 0.93 | pIC50 [6]: 6.13; metabolism in human liver microsomes judged by HPLC [2]: metabolized; behavioral/toxic effects at 200 mg/kg (Male BALBc mice): slight lethargy; pIC50 [11]: 4.56; DKr/NaL ([11]; ratio hERG IC50/late Na IC50): 36.9; DNaP/Kr ([11]; ratio peak Na IC50/hERG IC50): 0.9
Cc1cc(C)cc(OCC(N)c2ccccc2)c1.Cl (racemic) [Compound 70, (rac)-(+)-2-(3,5-dimethylphenoxy)-1-phenylethanamine hydrochloride] | 6.27 | 3.77 | > 0.0417 days | detectably metabolized | > 30 days | good solubility | 103 | 4.70 | No AP | None | 66 µM | No AP | 66 µM | None | 66 µM | 1.279 | 0.0013 µM | 5.22 and 5.21 | 34.0 | 3.0 | DNap/NaL ([6]; ratio peak/late IC50, Example 2, hydrochloride): 104 and 100.5; pIC50 [7]: 4.72; Ratio Mex INaL/Lead INaL ([1]; potency relative to Mexiletine): 94.4; metabolism in human liver microsomes judged by HPLC [2]: metabolized; behavioral/toxic effects at 200 mg/kg (Male BALBc mice): slight lethargy; nmols metabolized, CYP2D6 (CYP2D6): 4.6 nmols; nmols/μg CYP, CYP2D6 (CYP2D6): .345 nmols/μg CYP; pmols product/μg CYP/min, CYP2D6 (CYP2D6): 6.92 pmols product/μg CYP/min; LQT-Fold Shortening [9, 15]: 1.279; LQT-Shortening Dose [9, 15]: 7.4 µM; LQT-Cess. Dose [9]: 66 µM; EC50 [10, 16]: < 0.8 µM; pIC50 [11]: 5.21; DKr/NaL ([11]; ratio hERG IC50/late Na IC50): 34.0; DNaP/Kr ([11]; ratio peak Na IC50/hERG IC50): 3.0

From US11492325B2, “Compounds as inhibitors of sodium channels” (Human BioMolecular Research Institute, priority 2016, dated 2022)
